Reference: ChEMBL document CHEMBL1126832, “2-Amido-8-methoxytetralins: a series of nonindolic melatonin-like agents” (J Med Chem, 1993)

Tests used:
[1] = biological target: Melatonin receptor (Gallus gallus, UniProt P49288+P51050+P49285); test: Binding affinity to compete for 2-[125I]iodomelatonin binding to chicken retinal membranes; set-up: species or system Retina, Membrane
[2] = biological target: Melatonin receptor (Gallus gallus) (UniProt P49288+P51050+P49285); test: Relative binding affinity to chicken retinal membranes compared to 2-[125I]iodomelatonin.; conditions: Retina; Membrane
[3] = biological target: Melatonin receptor (Oryctolagus cuniculus); test: Inhibition of […] calcium dependent dopamine release from the rabbit retina.
[4] = organism: Oryctolagus cuniculus; test: Tested for in vitro inhibition of calcium-dependent release of [3H]dopamine from rabbit retina; NE- No effect; assay type: functional

Row | SMILES | Ki [1] | Relative affinity [2] | IC50 [3] | IC50 [4]
1 | CC(=O)NC1CCc2ccccc2C1 (stereo unspecified) | 665 nM | 1170 | 52 nM | 
2 | COc1ccc2c(c1)CCC(N)C2.Cl (stereo unspecified) | > 100000 nM |  |  | 
3 | COc1cccc(CCNC(C)=O)c1 | 581 nM | 1020 |  | 
4 | CCCC(=O)NC1CCc2cccc(OC)c2C1 (stereo unspecified) | 3.6 nM | 6.3 | 1.2 nM | 
5 | COc1cccc2c1CCC(NC(C)=O)C2 (stereo unspecified) | 1950 nM | 3420 | 6.5 nM | 
6 | CCC(=O)NC1CCc2ccccc2C1 (stereo unspecified) | 145 nM | 254 | 8.1 nM | 
7 | COc1cc2c(CCNC(C)=O)c(C)[nH]c2c(Cl)c1Cl | 0.23 nM | 0.4 | 0.01 nM | 
8 | COc1ccc2c(c1)CC(NC(C)=O)CC2 (stereo unspecified) | 121 nM | 212 | 1.6 nM | 
9 | CCC(=O)NCCc1ccccc1OC | 789 nM | 1380 |  | 
10 | CCCC(=O)NC1CCc2ccccc2C1 (stereo unspecified) | 44.4 nM | 78 | 1 nM | 
11 | CCCC(=O)NCCc1ccccc1OC | 748 nM | 1310 |  | 
12 | COc1cccc2c1CC(NC(=O)Cc1ccccc1)CC2 (stereo unspecified) |  |  |  | Not Active
13 | COc1cccc2c1CC(NC(=O)c1ccccc1)CC2 (stereo unspecified) | 23100 nM | 40500 | 22 nM | 
14 | O=C(CCl)NC1CCc2ccccc2C1 (stereo unspecified) | 95.1 nM | 167 | 1.3 nM | 
15 | COc1cccc2c1CC(NC(=O)C(C)C)CC2 (stereo unspecified) | 312 nM | 547 | 7.9 nM | 
16 | COc1cccc2c1CC(NC(=O)CCl)CC2 (stereo unspecified) | 3.75 nM | 6.6 | 0.063 nM | 
17 | CCCC(=O)NCCc1c[nH]c2ccc(OC)cc12 | 0.73 nM | 1.28 |  | 
18 | COc1ccccc1CCNC(C)=O | 420 nM | 737 | 3 nM | 
19 | COc1cccc2c1CC(NC(=O)C1CC1)CC2 (stereo unspecified) | 141 nM | 247 | 2.5 nM | 
20 | CCC(=O)NCCc1c[nH]c2ccc(OC)cc12 | 0.27 nM | 0.47 |  | 
